Assay results reported in patent publication US20240016786A1, “GLUCOSIDASE INHIBITORS FOR THE TREATMENT AND PREVENTION OF PULMONARY INFECTIONS” (priority 2020, published 2024).
Values after ≈ are worked out from the molar mass of the structure shown. Where two headings read alike, the source gives them in different places.

Key:
[1] = test system: SARS-CoV-2; assay: SARS-CoV-2 Virospot reduction assay, (strain not specified); format: cell-based; settings: for activity against strains of SARS-CoV-2: good in vitro activity e.g. IC50<100 μg/mL
[2] = test system: SARS-Cov-2 Germany/BavPat1/2020; assay: SARS-CoV-2 Virospot reduction assay (Viroclinics), Vero E6 cells; format: cell-based
Procedure: SARS-CoV-2 testing was carried out by the independent contract research organization Viroclinics, Netherlands, using the SARS—CoV-2 Virospot reduction assay. This is a high throughput assay to determine the IC50/IC90 (also termed EC50/EC90) of putative antiviral compounds as compared to other assay formats (such as traditional plaque count assays), and improved traceability from raw data to results. The assay measures drug or antibody-mediated reduction of virus propagation in cell monolayers, by virus-specific immunostaining and automated imaging of infected cells. Automated counting of the number of infected foci (i.e., “spots”) provides the raw data for IC50/IC90 calculations.
A serial dilution series of the test article is mixed with a fixed amount of virus and the virus/inhibitor is added to Vero E6 cells. Virus control wells without inhibitor and cell controls without drug and virus are included. Viral propagation is measured after 16-24 h incubation by TrueBlue immunostaining of infected cells and automated counting of viral “spots” (corresponding to area of viral growth and protein expression) and the IC50 value is calculated using 4 replicates.
Adherent cells were seeded in multi-well plates. Cell cultures were inoculated with a standardized amount of virus, in the absence and presence of serial compound dilutions, followed by 18-24 hours of incubation and an appropriate virus detection method (Immunostaining and count spots using a CTL Immunospot Image Analyser).
Virus signals were detected in presence of each compound concentration determine the 50% inhibitory concentration (IC50) and the 90% inhibitory concentration (IC90). The IC50 and IC90 values were calculated from the virus signals using the method described by Zielinska et al. (Virol J. 2005, 2(84)).
Remdesivir was used as a positive control.
Although cytotoxicity was not directly measured, the assay required intact cell monolayers to deliver a result. Severe cytotoxicity would be evident upon visual inspection and any deleterious effect of compound upon cell health is likely to negatively impact the formation of “spots”. This was not reported.

[3] = test system: SARS-Cov-2 SA (B.1.351); assay: as above; format: cell-based
[4] = test system: SARS-Cov-2 UK (B.1.1.7); assay: as above; format: cell-based
[5] = test system: SARS-CoV-2; settings: Huh7-hACE2 cells; cited from earlier work
[6] = test system: Huh7-hACE2 cells; settings: cited from earlier work
[7] = Hygroscopicity observed on recovery of spray dried material; format: physicochemical; settings: on collection/recovery after spray drying
[8] = test system: SARS-CoV-1; settings: SARS-CoV-1 in vitro; cited from earlier work
[9] = test system: Huh7-hACE2 cells; settings: cited from earlier work; remark: listed apart in the source
[10] = test system: cells in culture; settings: cited from earlier work
[11] = Severe acute respiratory syndrome coronavirus 2, Vero C1008, read-out: IC50
[12] = Severe acute respiratory syndrome coronavirus 2, Vero C1008, read-out: IC90
[13] = Severe acute respiratory syndrome coronavirus 2, Virospot reduction assay

In the case of `OC[C@@H]1[C@@H](O)[C@H](O)[C@@H](O)CN1CCCCCOCC12CC3CC(CC(C3)C1)C2` [AMP-DNM, N-adamantanemethyloxypentyl-1-deoxynojirimycin], the “activity against strains of SARS-CoV-2” value [1] is reported as “active against at least three strain”, the IC50 [2] is reported as 8.3 µg/mL (≈ 20.9 µM) and the IC90 [2] is reported as 28.6 µg/mL (≈ 71.9 µM). It also gave an IC50 [3] of 2.7 µg/mL (≈ 6.79 µM), an IC90 [3] of 24.8 µg/mL (≈ 62.4 µM) and an IC50 [4] of 7.7 µg/mL (≈ 19.4 µM). The IC90 [4] was 34.4 µg/mL (≈ 86.5 µM).
With `C[C@H]1O[C@H](O[C@H]2[C@H](O)[C@@H](O)[C@@H](O[C@H]3[C@H](O)[C@@H](O)C(O)O[C@@H]3CO)O[C@@H]2CO)[C@H](O)[C@@H](O)[C@@H]1N[C@H]1C=C(CO)[C@@H](O)[C@H](O)[C@H]1O` (stereo partly drawn) [Acarbose] the IC50 [2, 11] was > 200 µg/mL, the IC90 [2, 12] was > 200 µg/mL and the IC50 [3, 11] was > 200 µg/mL. For the same compound, the IC90 [3, 12] was > 200 µg/mL, the IC50 [4, 11] was > 200 µg/mL and the IC90 [4, 12] was > 200 µg/mL.
For `CCCC(=O)O[C@H]1CN2CC[C@H](O)[C@@H]2[C@@H](O)[C@@H]1O` [Celgosivir (6-O-butanoylcastanospermine), 6-O-butanoylcastanospermine], the EC50 [5] is listed as 1 ± 0.2 µM, the IC50 [1, 13] is listed as > 200 µg/mL and the IC50 [2, 11] is listed as > 200 µg/mL. The IC90 [2, 12] was > 200 µg/mL, the IC50 [3, 11] was > 200 µg/mL and the IC90 [3, 12] was > 200 µg/mL. For the same compound, the IC50 [4, 11] was > 200 µg/mL, the IC90 [4, 12] was > 200 µg/mL and the “lack of cytotoxicity up to the highest concentrations tested” value ([6]; viable nuclei, Huh7-hACE2 cells) was 500 µM.
For `OCCN1C[C@H](O)[C@@H](O)[C@H](O)[C@H]1CO` [Glyset (Miglitol), miglitol], the “activity against strains of SARS-CoV-2” value [1] was “active against at least one strain”, the IC50 [2, 11] was > 200 µg/mL and the IC90 [2, 12] was > 200 µg/mL. The hygroscopicity [7] was “extremely hygroscopic”, the IC50 [3, 11] was 90 µg/mL (≈ 434 µM) and the IC90 [3, 12] was > 200 µg/mL. For the same compound, the IC50 [4, 11] was > 200 µg/mL and the IC90 [4, 12] was > 200 µg/mL.
For `CC(C)(C)NC(=O)N(CCCCCCN1C[C@H](O)[C@@H](O)[C@H](O)[C@H]1CO)C1CCCCC1` [IHVR-19029, 3-tert-butyl-1-cyclohexyl-1-[6-[(2R,3R,4R,5S)-3,4,5-trihydroxy-2-(hydroxymethyl)piperidin-1-yl]hexyl]urea], the “activity against strains of SARS-CoV-2” value [1] was “active against at least three strain”, the IC50 [2, 11] was 48.5 µg/mL (≈ 109 µM) and the IC90 [2, 12] was > 200 µg/mL. The IC50 [3, 11] was 5.5 µg/mL (≈ 12.4 µM), the IC90 [3, 12] was > 200 µg/mL and the IC50 [4, 11] was 58.5 µg/mL (≈ 132 µM). For the same compound, the IC90 [4, 12] was > 200 µg/mL.
For `CCCCN1C[C@H](O)[C@@H](O)[C@H](O)[C@H]1CO` [Miglustat (NB-DNJ), N-butyl-1-deoxynojirimycin], the EC50 [8] is listed as ~100 µg/mL (≈ 456 µM), the EC50 [5] is listed as 19.9 ± 3.4 µM and the “activity against strains of SARS-CoV-2” value [1] is listed as “active against at least one strain”. For the same compound, the IC50 [2, 11] was > 200 µg/mL, the IC90 [2, 12] was > 200 µg/mL and the IC50 [3] was 15.0 µg/mL (≈ 68.4 µM). For the same compound, the IC50 [3, 11] was 19.2 µg/mL (≈ 87.6 µM), the IC90 [3, 12] was > 200 µg/mL and the IC50 [4, 11] was > 200 µg/mL. For the same compound, the IC90 [4, 12] was > 200 µg/mL, the CC50 [9] was > 1000 µM and the cytotoxicity [10] was “little cytotoxicity”. For the same compound, the “lack of cytotoxicity up to the highest concentrations tested” value [6] was 200 µM.
With `[N-]=[N+]=Nc1ccc(NCCCCCCN2C[C@H](O)[C@@H](O)[C@H](O)[C@H]2CO)c([N+](=O)[O-])c1` [NAP-DNJ, N-(6′-[4″-azido-2″-nitrophenylamino]hexyl)-1-deoxynojirimycin] the IC50 [1, 13] was < 10 µg/mL, the IC90 [1, 13] was < 40 µg/mL and the “activity against strains of SARS-CoV-2” value [1] was “active against at least three strain”. For the same compound, the IC50 [2, 11] was 1.4 µg/mL (≈ 3.3 µM), the IC90 [2, 12] was 10.2 µg/mL (≈ 24 µM) and the IC50 [3, 11] was 0.1 µg/mL (≈ 0.236 µM). For the same compound, the IC90 [3, 12] was 5.7 µg/mL (≈ 13.4 µM), the IC50 [4, 11] was 1.7 µg/mL (≈ 4.01 µM) and the IC90 [4, 12] was 7.9 µg/mL (≈ 18.6 µM).
For `OCC(CO)N[C@H]1C[C@](O)(CO)[C@@H](O)[C@H](O)[C@H]1O` [Voglibose], the “activity against strains of SARS-CoV-2” value [1] was “active against at least one strain”, the IC50 [2, 11] was > 200 µg/mL and the IC90 [2, 12] was > 200 µg/mL. The IC50 [3, 11] was 91.2 µg/mL (≈ 341 µM), the IC90 [3, 12] was > 200 µg/mL and the IC50 [4, 11] was > 200 µg/mL. The IC90 [4, 12] was > 200 µg/mL.
